Experimental data published in PMC9181915, “Synthesis and Anti-Neuroinflammatory Activity of 1,7-diphenyl-1,4-heptadien-3-ones in LPS-Stimulated BV2 Microglia Via Inhibiting NF-κB/MAPK Signaling Pathways” (Molecules, 2022).

Key:
[1] = MTT cell viability assay in BV2 microglia cells; assay type: cell-based; details: mouse, mean ± SD, n = 3
Experimental: (§1) The BV2 microglial cells were purchased from the China Center for Type Culture Collection, CCTCC (Wuhan, Hubei). BV2 microglia cells were incubated in DMEM media supplemented with 10% (v/v) FBS, 100 U/mL penicillin G and […] streptomycin at 37 °C with 5% CO2.
Cell viability assays were evaluated using a 3-(4,5-dimethylthiazol-2-yl)-2,5-diphenyltetrazolium bromide (MTT) assay. BV2 microglia cells were seeded in 96-well plates at a density of 1.6 × 10^5 cells/well in complete medium and incubated for 24 h. Then, the culture medium was sucked and discarded, and sterile PBS was added for washing, and then PBS was removed. Then the cells were treated with different concentrations of target compounds for 24 h. An amount equal to 100 μL of MTT was added to each well and the cells were further incubated for 2–4 h. An amount equal to 150 μL of DMSO was added into a 96-well plate and vibrated with micro-oscillator for 10 min. The optical density (A) was measured at […] on a microplate reader. The inhibitory rate of the various concentrations of agents in BV2 cells was calculated using the following formula:Cell viability (%) = [A492 (sample) − A492 (blank)]/[A492 (control) − A492 (blank)] × 100%

[2] = In vivo pharmacokinetic study in rats; set-up: species or system Sprague–Dawley male rats; details: for AUC(0-inf) / AUC(0-t) / Cmax / half-life / MRT last / MRT inf: male, Sprague-Dawley, rat plasma, mean ± SD, n = 4; for AUC(0-inf) / AUC(0-t) / Cmax / half-life / MRT last / MRT inf / Increase of T1/2 in comparison with that of CU: single intravenous dose 20 mg/kg; for MRT last: read-out: MRT (0-t) (converted); for MRT inf: read-out: MRT (0-∞) (converted); for Metabolites detected in plasma by HPLC: rat plasma after intravenous 20 mg/kg, chromatograms at 5, 10, 20 min (Figures S1–S9); for Increase of T1/2 in comparison with that of CU: rat
Experimental: After a single intravenous dose of 20 mg/kg, 0.5 mL of blood was obtained from the fossa orbitalis veniplex of rats at 5, 10, 20, 30, 45, 60, 120, 180 and 240 min. HPLC was used to determine the concentration of each compound in plasma and the DAS software was used for the noncompartmental pharmacokinetic analysis of the plasma concentration–time data.
Sprague–Dawley male rats, 200–240 g, were housed in cages in an airconditioned room with light dark cycle of 12 h before the experiment started. The animals were fasted for 12 h with water ad libitum. […] The administration volume was 6 mL per kg of body weight. The compounds were dissolved in PEG400 (10% of the administration volume) and water (90% of the administration volume) and sonicated for 30 min. After tail vein injection administration at a dose of 20 mg/kg, 0.5 mL blood was obtained from fossa orbitalis veniplex of rats at 5, 10, 20, 30, 45, 60, 120, 180 and 240 min. Whole blood samples were collected in heparinized tubes and the plasma was immediately centrifuged (10,000 rpm, 10 min, 4 °C) and then stored at −20 °C until analysis. The calibration standards and the plasma samples were extracted by protein precipitation using methanol.

COX-2 = test: LPS-induced COX-2 expression in BV2 cells (Western blot); assay type: cell-based; details: 3 μM, 1 h pretreatment, LPS 1 μg/mL 24 h
Experimental: (§2) CU-19, CU-21 and LPS were configured with DMEM medium (2% FBS). The cells were collected and washed three times with ice-cold PBS. The lysate (containing 1% protease inhibitor and phosphatase inhibitor) was added to the collected cells for suspension, and the cells were lysed by ultrasonic crusher. Then the cell lysates were centrifuged (14,000 rpm, 10 min, 4 °C) […] and collect the supernatant. Aliquots of the lysates were separated on 10% sodium dodecyl sulphate (SDS)-polyacrylamide gel electrophoresis (PAGE) and then electro blotted onto a polyvinylidene difluoride (PVDF) membrane. The blots were blocked with 5% (w/v) nonfat dry milk for 2 h at room temperature, followed by incubation with specific primary antibodies at 4 °C overnight. Blots were washed with PBST and incubated with secondary antibody for 2 h, after which an ECL reagent was used for chemiluminescent detection.

iNOS = test: LPS-induced iNOS expression in BV2 cells (Western blot); assay type: cell-based; details: 3 μM, 1 h pretreatment, LPS 1 μg/mL 24 h
Experimental: as §2

JNK = test: LPS-induced JNK phosphorylation in BV2 cells (Western blot); assay type: cell-based; details: 3 μM, 1 h pretreatment, LPS 1 μg/mL 24 h
Experimental: as §2

ERK = test: LPS-induced ERK phosphorylation in BV2 cells (Western blot); assay type: cell-based; details: 3 μM, 1 h pretreatment, LPS 1 μg/mL 24 h
Experimental: as §2

IL-6 = test: LPS-induced IL-6 release in BV2 cells (ELISA); assay type: cell-based, mouse; details: 3 µM, 1 h pretreatment, LPS 1 μg/mL 24 h, vs. LPS alone
Experimental: (§3) BV2 microglia cells were seeded at 1 × 10^5 cells/well in a 24-well microplate and incubated overnight. […] CU-19, CU-21 and LPS were configured with DMEM medium (2% FBS). According to the protocol of the manufacturer, supernatant was harvested at the 24th hour for the assay of IL-6, TNF-α and PGE-2 with ELISA kits (Absin Shanghai, China). Briefly, 100 μL of biotinylated antibody reagent and the culture supernatant were added to anti-mouse IL-6, TNF-α and PGE-2-precoated 96-well plates, and the plates were incubated for 2.5 h at room temperature. The plate was washed with a washing buffer and subsequently incubated with 100 μL of the streptavidin–HRP solution for 20 min at room temperature. The plate was washed and incubated with 100 μL of TMB substrate solution for 20 min at room temperature in the dark. The reaction was stopped by adding 50 μL of stop solution, and then the absorbance was measured at 450 nm by a plate reader. The average value was substituted into the standard curve to obtain the […] concentration.

NF-κB = test: LPS-induced NF-κB nuclear translocation in BV2 cells (immunofluorescence); assay type: cell-based; details: 3 μM with LPS, 24 h
Experimental: CU-19, CU-21 and LPS were configured with DMEM medium (2% FBS). After 24 h of treatment, cells were fixed with 4% paraformaldehyde for 18 min and washed three times with PBS (5 min per wash). The fixed cells were then permeabilized in […] for 15 min and washed three times with PBS (5 min per wash). Nonspecific binding sites were blocked with 5% goat serum for 30 min. These cells were then incubated with anti-NF-κB antibody at a dilution of 1:400 overnight at 4 °C. After washing with PBS three times, cells were incubated with fluorescent-conjugated secondary antibody (1:150) for 1 h, and counterstained with DAPI (1:50) at room temperature for 15 min in the dark. Cells were then washed and imaged via confocal microscopy.

p38 = test: LPS-induced p38 phosphorylation in BV2 cells (Western blot); assay type: cell-based; details: 3 μM, 1 h pretreatment, LPS 1 μg/mL 24 h
Experimental: as §2

TNF-α = test: LPS-induced TNF-α release in BV2 cells (ELISA); assay type: cell-based, mouse; details: 3 µM, 1 h pretreatment, LPS 1 μg/mL 24 h, vs. LPS alone
Experimental: as §3

[3] = test system: LPS-induced NO release in BV2 cells; test: Inhibition of LPS-induced NO release in BV2 cells; assay type: cell-based; details: Mus musculus, BV-2; for inhibition at 3 µM: pretreated 1 h, then LPS 1 μg/mL for 24 h, BV2 cells; for IC50: BV2 cells, 0.3, 1.0, 3.0 μM, LPS 1 μg/mL 24 h, mean ± SD, n = 3, read-out: IC50 to inhibit LPS-induced NO release
Experimental: as §1
Nitrite, a stable product of nitric oxide, was used to assess NO production. To study the effects of the compounds on NO production, BV2 microglia cells in the logarithmic phase were plated at 1 × 10^5 cells/well in a 24-well microplate and incubated in DMEM medium (10% FBS) overnight. The cells were pretreated with various concentrations of the test compounds for 1 h and further co-cultured with 1 μg/mL LPS and 5% CO2 for 24 h in a 37 °C incubator; then, the supernatant was taken and stored at −20 °C for NO detection. The target compound and LPS were configured with DMEM medium (2% FBS). The determination of NO was carried out according to the instructions. Unpretreated and unstimulated BV2 microglia cells were conducted as the blank control group. The absorbance value was determined at 540 nm, and the corresponding NO content was calculated by using the standard curve. The NO inhibitory rate of the various concentrations of agents in BV2 cells was calculated as per the following formula:Inhibition rate (%) = (LPS(NO concentration) − sample(NO concentration))/(LPS(NO concentration) − negative control(NO concentration)) × 100%.

PGE-2 = test: LPS-induced PGE-2 release in BV2 cells (ELISA); assay type: cell-based, mouse; details: 3 µM, 1 h pretreatment, LPS 1 μg/mL 24 h, vs. LPS alone
Experimental: as §3

Compound | viability at 24 h, 1 µM [1] [%] | viability at 24 h, 3 µM [1] [%] | viability at 24 h, 10 µM [1] [%] | AUC(0-inf) [2] [ng·h/mL] | AUC(0-t) [2] [ng·h/mL] | Cmax [2] [ng/mL] | half-life [2] [h] | MRT last [2] [h] | MRT inf [2] [h] | Metabolites detected in plasma by HPLC [2] | Increase of T1/2 in comparison with that of CU [2] [fold] | Inhibition of LPS-induced COX-2 expression (COX-2) | Inhibition of LPS-induced iNOS expression (iNOS) | JNK phosphorylation compared to the LPS group (JNK) | ERK phosphorylation compared to the LPS group (ERK) | Inhibition of LPS-induced IL-6 release (IL-6) | Inhibition of LPS-induced NF-κB nuclear translocation (NF-κB) | p38 phosphorylation compared to the LPS group (p38) | inhibition at 3 µM [3] [%] | IC50 [3] [nM] | other results
COc1ccc(/C=C/C(=O)/C=C/CCc2ccccc2)cc1OC [CU-19, (1E,4E)-1-(3,4-dimethoxyphenyl)-7-phenyl-1,4-heptadien-3-one] | 96.94 ± 0.03 | 96.33 ± 0.02 | 67.91 ± 0.37 | 2220 | 1770 | 3330 ± 393 | 2.25 ± 0.104 | 1.02 | 2.12 | no obvious metabolites | 4.5 | significantly inhibited | significantly inhibited | significantly decreased | significantly decreased | significantly inhibited | able to inhibit NF-κB nuclear translocation | significantly decreased | 50.3 | 1600 ± 310 | Inhibition of LPS-induced TNF-α release (TNF-α): significantly inhibited; Inhibition of LPS-induced PGE-2 release (PGE-2): significantly inhibited
COc1cc(/C=C/C(=O)CC(=O)/C=C/c2ccc(O)c(OC)c2)ccc1O [CU, curcumin, reference compound] | 97.57 ± 0.05 | 95.26 ± 0.05 | 28.15 ± 0.19 | 678 | 652 | 2450 ± 132 | 0.412 ± 0.282 | 0.235 | 0.342 |  |  |  |  | inhibited | inhibited |  |  | inhibited | 37.4 | > 3000 | 
COc1ccc(CC/C=C/C(=O)/C=C/c2ccccc2)cc1 [CU-21, (1E,4E)-7-(4-methoxyphenyl)-1-phenyl-1,4-heptadien-3-one] | 96.94 ± 0.01 | 94.55 ± 0.09 | 77.89 ± 0.5 | 3530 | 2830 | 6850 ± 634 | 2.72 ± 0.613 | 0.757 | 2.32 | no obvious metabolites | 5.5 | significantly inhibited | significantly inhibited | significantly decreased | significantly decreased | significantly inhibited | able to inhibit NF-κB nuclear translocation | significantly decreased | 66.1 | 1740 ± 660 | Inhibition of LPS-induced TNF-α release (TNF-α): significantly inhibited; melting point: 58 to 60 °C; Inhibition of LPS-induced PGE-2 release (PGE-2): significantly inhibited
COc1ccc(/C=C/C(=O)/C=C/CCc2ccccc2)cc1O [CU-8, (1E,4E)-1-(3-hydroxy-4-methoxyphenyl)-7-phenyl-1,4-heptadien-3-one] | 101.18 ± 0.04 | 97.4 ± 0.07 | 18.2 ± 0.86 |  |  |  |  |  |  |  |  |  |  |  |  |  |  |  | 18.8 |  | melting point: 72 to 74 °C
